# Results published in US20260048138A1, “NOVEL PI3K AND/OR PIKK INHIBITORS, ANTIBODY-DRUG CONJUGATES COMPRISING THE SAME AND USES THEREOF” (HUTCHMED LIMITED, priority 2024, published 2026).
# Assays:
# [1] = test system: MDA-MB-468; assay: Inhibition of cell proliferation by payloads in vitro (CCK-8); format: cell-based; conditions: Homo sapiens, MDA-MB-468, 144 h; payloads, proliferation, 6 days, CCK-8; read-out: IC50, nM MDA-MB-468
# Description: (§1) The cells were added to a 96-well plate at 1.0×10^3 cells/well and 100 μL/well and incubated in a cell culture incubator at 37° C. and 5% CO2. The test compounds were diluted with a DMEM medium containing 2% DMSO (Sigma-Aldrich, Cat. No. 34869) in a 4-fold gradient to the corresponding concentrations. […] The final concentration of DMSO was 0.2%. The cells were incubated in a cell culture incubator at 37° C. and 5% CO2 for 6 days.
# (§2) After 6 days of culture, 10 μL/well of Cell Counting Kit-8 reagent (CCK-8, Dojindo, Cat. No. CK04) was added to the wells and mixed well with shaking. The cells were incubated in a cell culture incubator at 37° C. and 5% CO2 for 0.50-4.0 hours.
# (§3) The OD450 optical density value was read on an EnVision™ multi-function microplate reader (PerkinElmer), and the inhibition rates (%) of the compounds were calculated. Then, the half-maximal inhibitory concentration (IC50) values were obtained using the XLfit5 software (ID Business Solutions Limited). All samples were tested in duplicate wells.
# (§4) [formula] • wherein • OD450test compound represents the optical density value in the wells of the compounds to be tested; • OD450cell represents the optical density value in the wells of cell controls; • OD450background represents the optical density value in the wells of cell-free controls.
# [2] = biological target: T1, Human PIK3CA/PIK3R1 (p110α/p85α) recombinant protein (Homo sapiens, UniProt P42336); assay: PIK3CA/PIK3R1 (p110α/p85α) kinase activity, Transcreener ADP2 FP; format: biochemical; conditions: 10 μM ATP, 30 μM PIP2:PS; read-out: PIK3CA/PIK3R1 (p110α/p85α) (Enzyme, IC50)
# T1 construct: His tag; purchased Invitrogen PV4788
# Description: The complex formed by the binding of the ADP Alexa633 Tracer to the ADP2 antibody therein could produce fluorescence polarization. […] Assay is carried out according to the instruction of the kit. […] After that, 10 μl PIK3CA/PIK3R1 (p110α/p85α) enzyme solution was added to each well; then, 10 μl of a mixed solution of ATP and PIP2:PS lipid kinase substrate was added to each well, and the mixture was centrifuged at 1000 rpm for 60 seconds; Then, the 96-well plate was placed in a constant temperature incubator protected from light and incubated at room temperature for 1 hour. […] After the enzymatic reaction was completed, 25 μl of ADP detection mixture was added to the positive control group, 25 μl of ADP detection mixture without ADP^2 antibody was added to the negative control group, and 25 μl of ADP detection mixture without tracer-label ADP and ADP^2 antibody was added to the blank control group. Then centrifugation was performed at 1000 rpm for 60 seconds. The 96-well plate was placed in a constant temperature incubator protected from light, and incubated at room temperature for 1.5 hours. […] [formula] The inhibition rate was calculated using the formula as below: [formula]
# [3] = biological target: T2, Human FRAP1 (mTOR) recombinant protein (Homo sapiens, UniProt P42345); assay: FRAP1 (mTOR) kinase activity, LanthaScreen TR-FRET; format: biochemical; conditions: 10 μM ATP, 0.4 μM GFP-4EBP1; read-out: FRAP1 (mTOR) (Enzyme, IC50)
# T2 construct: GST; purchased Invitrogen PV4753
# Description: Determination of FRAP1 (mTOR) Kinase Activity • Human FRAP1 (mTOR) recombinant protein (GST tag): Invitrogen, Cat. No. PV4753; • GFP-4E-BP1: Thermo Scientific, Cat. No. PV4759; • LanthaScreenTM Tb-p4E-BP1 ([…]) antibody: Thermo Scientific, Cat. No. PV4755; • TR-FRET dilution buffer: Thermo Scientific, Cat. No. PV3574; • ATP solution (10 mM): Thermo Scientific, Cat. No. PV3227; • HEPES (1 M): Gibco, Cat. No. 15630-106; • EDTA (0.5 M), pH 8.0, RNase-free: Invitrogen, Cat. No. A[…]; • Manganese chloride solution: Sigma-Aldrich, Cat. No. M1787; • EGTA: Sigma-Aldrich, Cat. No. E4378; • TWEEN®20: Sigma-Aldrich, Cat. No. P2287; • DTT: Sigma-Aldrich, Cat. No. DTT-RO; • 384-well plate: Corning, Cat. No. 3676; • 384-well plate: Corning, Cat. No. 4514; • Envision multi-mode plate reader: PerkinElmer; 4EBP1 is the substrate of mTOR, and when mTOR is activated, it will phosphorylate […] of the 4EBP1 protein. LanthaScreenTM kinase assay is used to detect the amount of phosphorylated substrate GFP-4E-BP1 produced in kinase activity experiments, thereby judging the mTOR kinase activity, and through the strength of the kinase activity, distinguishing the inhibitory effects of different compounds on the activity of FRAP1 (mTOR) kinase. […] Then, the 384-well plate was placed in a constant temperature incubator protected from light and incubated at room temperature for 1 hour. […] The 384-well plate was taken out and the plate was read using an Envision multi-mode plate reader (the excitation light wavelength was 320 nm and the emission light wavelengths were 495 nm and 520 nm). The inhibition rate was calculated using the formula as below: [formula]
# [4] = test system: MDA-MB-453; assay: Inhibition of cell proliferation by payloads in vitro (CCK-8); format: cell-based; conditions: Homo sapiens, MDA-MB-453, 144 h, read-out: IC50, nM MDA-MB-453; payloads, proliferation, 6 days, CCK-8
# Description: as §1, §2, §3, §4
# [5] = biological target: ATM(h) (Homo sapiens, UniProt Q13315); assay: ATM(h) kinase activity, HTRF (Eurofins Cerep); format: biochemical; conditions: read-out: ATM(h) (enzyme, IC50)
# Description: (§5) The […], ATM(h), ATR/ATRIP(h), and DNA-PK (h) were detected by HTRFR.
# (§6) The calculation formula was as follows: […]
# (§7) For IC50 determination, the data were analyzed using XLFit version 5.3 (ID Business Solutions).
# [6] = biological target: T3, ATR/ATRIP(h) (Homo sapiens, UniProt Q13535); assay: ATR/ATRIP(h) kinase activity, HTRF (Eurofins Cerep); format: biochemical; conditions: read-out: ATR/ATRIP(h) (enzyme, IC50)
# T3 construct: purchased Eurofins Cerep 14-953
# Description: as §5, §6, §7
# [7] = biological target: T4, DNA-PK(h) (Homo sapiens, UniProt P78527); assay: DNA-PK(h) kinase activity, HTRF (Eurofins Cerep); format: biochemical; conditions: read-out: DNA-PK(h) (enzyme, IC50)
# T4 construct: purchased Eurofins Cerep 14-950
# Description: as §5, §6, §7
# T2 sequence (P42345 1360-2549 limits assumed): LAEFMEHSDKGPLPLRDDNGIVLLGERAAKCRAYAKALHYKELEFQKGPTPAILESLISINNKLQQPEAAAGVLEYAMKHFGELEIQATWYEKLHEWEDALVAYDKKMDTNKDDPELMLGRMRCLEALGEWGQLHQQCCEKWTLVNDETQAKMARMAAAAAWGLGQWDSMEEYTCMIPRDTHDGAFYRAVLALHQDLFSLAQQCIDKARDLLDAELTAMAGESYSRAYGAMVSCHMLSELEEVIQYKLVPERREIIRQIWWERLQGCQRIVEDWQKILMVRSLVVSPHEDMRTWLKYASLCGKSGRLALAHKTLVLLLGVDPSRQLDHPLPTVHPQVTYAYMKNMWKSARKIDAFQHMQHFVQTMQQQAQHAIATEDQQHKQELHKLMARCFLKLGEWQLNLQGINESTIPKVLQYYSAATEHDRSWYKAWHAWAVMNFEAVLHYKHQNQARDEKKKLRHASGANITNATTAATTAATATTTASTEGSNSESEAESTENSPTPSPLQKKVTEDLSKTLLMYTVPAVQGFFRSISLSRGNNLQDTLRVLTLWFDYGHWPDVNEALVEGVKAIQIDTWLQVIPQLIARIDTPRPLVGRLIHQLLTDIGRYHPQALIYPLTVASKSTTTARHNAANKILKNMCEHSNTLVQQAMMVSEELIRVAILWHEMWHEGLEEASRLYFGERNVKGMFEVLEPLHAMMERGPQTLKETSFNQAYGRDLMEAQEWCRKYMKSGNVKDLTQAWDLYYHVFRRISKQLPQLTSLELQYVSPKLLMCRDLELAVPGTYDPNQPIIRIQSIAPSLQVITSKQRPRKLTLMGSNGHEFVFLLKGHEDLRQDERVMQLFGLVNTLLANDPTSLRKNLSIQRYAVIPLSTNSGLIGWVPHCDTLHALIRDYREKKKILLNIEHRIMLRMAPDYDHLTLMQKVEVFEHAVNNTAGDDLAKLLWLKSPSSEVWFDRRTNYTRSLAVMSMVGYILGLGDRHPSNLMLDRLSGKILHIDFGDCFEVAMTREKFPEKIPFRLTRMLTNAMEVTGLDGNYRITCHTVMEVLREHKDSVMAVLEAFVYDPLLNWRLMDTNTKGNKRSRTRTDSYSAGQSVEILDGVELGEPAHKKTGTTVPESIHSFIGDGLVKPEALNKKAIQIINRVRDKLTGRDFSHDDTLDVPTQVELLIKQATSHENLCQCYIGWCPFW
# T1 sequence (P42336 whole entry): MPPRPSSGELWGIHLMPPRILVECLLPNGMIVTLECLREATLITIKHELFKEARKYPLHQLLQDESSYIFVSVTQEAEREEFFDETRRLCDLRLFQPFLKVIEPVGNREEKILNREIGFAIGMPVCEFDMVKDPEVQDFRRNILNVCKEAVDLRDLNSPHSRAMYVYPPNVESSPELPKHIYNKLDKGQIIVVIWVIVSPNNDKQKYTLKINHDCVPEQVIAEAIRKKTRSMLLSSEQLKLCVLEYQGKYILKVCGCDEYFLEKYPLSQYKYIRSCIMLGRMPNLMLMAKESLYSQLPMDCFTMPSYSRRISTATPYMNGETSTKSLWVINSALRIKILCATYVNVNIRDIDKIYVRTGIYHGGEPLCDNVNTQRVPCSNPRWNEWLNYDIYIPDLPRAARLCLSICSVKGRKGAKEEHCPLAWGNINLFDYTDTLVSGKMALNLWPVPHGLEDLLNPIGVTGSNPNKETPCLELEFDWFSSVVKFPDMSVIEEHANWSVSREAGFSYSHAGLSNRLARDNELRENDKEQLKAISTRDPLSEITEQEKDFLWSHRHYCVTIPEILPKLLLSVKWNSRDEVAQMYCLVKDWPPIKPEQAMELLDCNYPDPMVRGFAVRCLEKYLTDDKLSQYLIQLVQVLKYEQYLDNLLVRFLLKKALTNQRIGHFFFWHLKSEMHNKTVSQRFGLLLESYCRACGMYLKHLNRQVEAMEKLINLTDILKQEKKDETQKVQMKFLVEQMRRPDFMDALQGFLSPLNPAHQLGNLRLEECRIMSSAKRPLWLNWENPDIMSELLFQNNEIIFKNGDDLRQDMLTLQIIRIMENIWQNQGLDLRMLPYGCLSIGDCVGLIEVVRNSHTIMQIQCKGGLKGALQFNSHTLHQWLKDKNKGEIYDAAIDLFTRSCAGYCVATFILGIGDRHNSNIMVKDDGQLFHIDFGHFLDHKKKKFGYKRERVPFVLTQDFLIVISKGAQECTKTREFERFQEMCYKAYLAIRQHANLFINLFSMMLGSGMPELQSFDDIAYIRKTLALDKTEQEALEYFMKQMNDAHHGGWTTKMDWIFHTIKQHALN
# T1 sequence (P27986 whole entry partner): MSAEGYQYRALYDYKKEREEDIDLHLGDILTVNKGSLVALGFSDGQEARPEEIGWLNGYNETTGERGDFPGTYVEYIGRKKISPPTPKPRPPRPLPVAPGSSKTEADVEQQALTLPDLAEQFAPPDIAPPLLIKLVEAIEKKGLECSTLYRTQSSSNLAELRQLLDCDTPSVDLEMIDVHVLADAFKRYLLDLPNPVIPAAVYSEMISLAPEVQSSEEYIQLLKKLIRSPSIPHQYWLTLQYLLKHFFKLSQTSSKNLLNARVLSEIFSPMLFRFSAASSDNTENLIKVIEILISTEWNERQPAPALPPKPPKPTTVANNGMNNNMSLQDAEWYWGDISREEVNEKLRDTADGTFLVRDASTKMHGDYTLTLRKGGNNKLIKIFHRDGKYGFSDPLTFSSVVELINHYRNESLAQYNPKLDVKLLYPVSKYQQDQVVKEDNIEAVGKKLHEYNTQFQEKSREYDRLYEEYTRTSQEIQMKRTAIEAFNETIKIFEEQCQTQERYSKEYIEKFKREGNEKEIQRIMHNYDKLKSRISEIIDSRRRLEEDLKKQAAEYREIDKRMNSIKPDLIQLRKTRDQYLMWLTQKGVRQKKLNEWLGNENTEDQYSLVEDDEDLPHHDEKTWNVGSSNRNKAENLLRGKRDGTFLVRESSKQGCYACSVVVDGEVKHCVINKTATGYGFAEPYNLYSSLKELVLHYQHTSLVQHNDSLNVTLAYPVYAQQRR
IC50 [1],IC50 [4],also measured,SMILES
0.091 nM,–,IC50 [2]: 2.1 nM; IC50 [3]: 6.2 nM,COc1ncc(-c2ccc3ncc4cnc(C5CCC5)n4c3c2)cc1NS(=O)(=O)N1CCNCC1 [Compound 18]
0.2 nM,0.24 nM,IC50 [2]: 1.8 nM,COc1ncc(-c2ccc3ncc4cnc(C5CC(F)(F)C5)n4c3c2)cc1NS(=O)(=O)N1CCNCC1 [Compound 24]
1.4 nM,0.55 nM,IC50 [2]: 0.7 nM; IC50 [3]: 3.4 nM,COc1ncc(-c2ccc3ncc4ncc(C5CC5)n4c3c2)cc1NS(=O)(=O)N1CCNCC1 [Compound 23]
–,2.3 nM,–,COc1ncc(-c2ccc3ncc4c(c3c2)n(C2CC2)c(=O)n4C)cc1NS(=O)(=O)N1CCN(C)CC1 [Compound 10]
0.32 nM,0.25 nM,–,COc1ncc(-c2ccc3ncc4c(c3c2)n(C)c(=O)n4C)cc1NS(=O)(=O)N1CCNCC1 [Compound 6]
1 nM,–,–,COc1ncc(-c2ccc3ncc4nnc(C5CC5)n4c3c2)cc1NS(=O)(=O)N1CCNCC1 [Compound 9]
–,0.24 nM,IC50 [5]: 0.4 nM; IC50 [6]: 15 nM; IC50 [7]: 0.2 nM,COc1ncc(-c2ccc3ncc4c(C)nc(C5CC5)n4c3c2)cc1NS(=O)(=O)N1CCNCC1 [Compound 31]
9.2 nM,6.5 nM,–,COc1ncc(-c2ccc3ncc4c(c3c2)n(C2CC2)c(=O)n4C)cc1NS(=O)(=O)N1CCN(CCO)CC1 [Compound 22]
0.09 nM,0.064 nM,IC50 [2]: 1.6 nM; IC50 [3]: 7.5 nM,COc1ncc(-c2ccc3ncc4c(c3c2)n(C2CCC2)c(=O)n4C)cc1NS(=O)(=O)N1CCNCC1 [Compound 5]
91.4 nM,61.6 nM,–,COc1ncc(-c2ccc3ncc4c(c3c2)n(C2COC2)c(=O)n4C)cc1NS(=O)(=O)N1CCNCC1 [Compound 16]
0.21 nM,0.32 nM,–,COc1ncc(-c2ccc3ncc4c(c3c2)n([C@H]2C[C@H](CO)C2)c(=O)n4C)cc1NS(=O)(=O)N1CCNCC1 [Compound 8]
7.9 nM,3.3 nM,–,COc1ncc(-c2ccc3ncc4c(c3c2)n(C2CC2)c(=O)n4C)cc1NS(=O)(=O)N1CC2CNCC2C1 (stereo not drawn) [Compound 12]
0.22 nM,0.3 nM,IC50 [2]: 0.5 nM; IC50 [3]: 2.7 nM,COc1ncc(-c2ccc3ncc4c(c3c2)n([C@H]2C[C@H](O)C2)c(=O)n4C)cc1NS(=O)(=O)N1CCNCC1 [Compound 7]
1.8 nM,1.3 nM,–,COc1ncc(-c2ccc3ncc4c(c3c2)C(C2CC2)N=N4)cc1NS(=O)(=O)N1CCNCC1 (stereo not drawn) [Compound 13]
3 nM,2.3 nM,–,COc1ncc(-c2ccc3ncc4c(c3c2)n(C2CC2)c(=O)n4CC(F)(F)F)cc1NS(=O)(=O)N1CCNCC1 [Compound 33]
0.055 nM,0.12 nM,IC50 [2]: 1.4 nM; IC50 [3]: 8.6 nM,COc1ncc(-c2ccc3ncc4c(c3c2)n(C2CCCC2)c(=O)n4C)cc1NS(=O)(=O)N1CCNCC1 [Compound 19]
3.4 nM,2.8 nM,–,Cn1c(=O)n(C2CC2)c2c3cc(-c4cnc(OCC(F)(F)F)c(NS(=O)(=O)N5CCNCC5)c4)ccc3ncc21 [Compound 34]
1.9 nM,1.8 nM,–,COc1ncc(-c2ccc3ncc4c(c3c2)n([C@H]2C[C@H](CO)C2)c(=O)n4C)cc1NS(=O)(=O)N1CCN(C)CC1 [Compound 26]
4.9 nM,6.6 nM,–,COc1ncc(-c2ccc3ncc4nccn4c3c2)cc1NS(=O)(=O)N1CCNCC1 [Compound 21]
18.4 nM,14.9 nM,–,COc1ncc(-c2ccc3ncc4c(c3c2)n(C2CC2)c(=O)n4C)cc1NS(=O)(=O)N1CCC2(CC1)CNC2 [Compound 15]
0.2 nM,0.22 nM,–,[2H]C([2H])([2H])n1c(=O)n(C2CC2)c2c3cc(-c4cnc(OC)c(NS(=O)(=O)N5CCNCC5)c4)ccc3ncc21 [Compound 35]
1 nM,–,–,COc1ncc(-c2ccc3ncc4cnc(C)n4c3c2)cc1NS(=O)(=O)N1CCNCC1 [Compound 20]
3.4 nM,1.8 nM,–,COc1ncc(-c2ccc3ncc4ncn(C5CCC5)c4c3c2)cc1NS(=O)(=O)N1CCNCC1 [Compound 17]
0.2 nM,0.34 nM,IC50 [3]: 10.8 nM,COc1ncc(-c2ccc3ncc4c(c3c2)n(C2CC(F)(F)C2)c(=O)n4C)cc1NS(=O)(=O)N1CCNCC1 [Compound 25]
0.41 nM,0.39 nM,IC50 [2]: 0.6 nM; IC50 [3]: 11.2 nM,COc1ncc(-c2ccc3ncc4c(c3c2)n(C2CC2)c(=O)n4C)cc1NS(=O)(=O)C1CCNCC1 [Compound 14]
0.71 nM,0.89 nM,–,COc1ncc(-c2ccc3ncc4nnc(C5CCC5)n4c3c2)cc1NS(=O)(=O)N1CCNCC1 [Compound 4]
6 nM,7.9 nM,–,"COc1ncc(-c2ccc3ncc4nnc(C5CC5)n4c3c2)cc1NS(=O)(=O)N1CCN(C)CC1 [Reference compound 1, reference compound]"
